Data: patent US5459132A, “N6-[(Imidazo[1,2-a]pyridin-3-yl)ethyl]adenosines, their 5'-uronamide analogues and pharmaceutical compositions” (Laboratoires UPSA, priority 1994, dated 1995)

How the values were obtained:
mice = assay: Phenylbenzoquinone test (analgesic activity); type: in vivo; conditions: one hour before phenylbenzoquinone injection, 5 minutes observation
Procedure: 2. Phenylbenzoquinone test
The intraperitoneal injection of phenylbenzoquinone causes twisting and stretching movements in mice. Analgesics prevent or reduce this syndrome, which can be considered as the exteriorization of diffuse abdominal pain.
A 0.02% solution of phenylbenzoquinone in water is administered in a volume of 1 ml/100 g.
The products of the Examples are administered orally one hour before the injection of phenylbenzoquinone.
The stretching and twisting movements are counted for each mouse over an observation period of 5 minutes.

Balbc 3T3 fibroblasts = assay: Inhibition of the cell proliferation induced by a growth factor (PDGF) in Balbc 3T3 fibroblasts, ^3H-thymidine incorporation; type: cell-based; conditions: for % inhibition of the incorporation of ^3H-thymidine stimulated by PDGF, 1E-6M: test molecule 1E-6M
Procedure: Measurement of the inhibition of the cell proliferation induced by a growth factor in Balbc […] 3T3 fibroblasts
Inhibition of the cell proliferation induced by a growth factor (for example PDGF) is evaluated by measuring the incorporation of ^3 H-thymidine into Balbc 3T3 fibroblasts.
The Balbc 3T3 fibroblasts are cultivated at 37° C. with 5% of CO2 up to the point of subconfluence and are then placed for 18 hours under rest conditions in a serum-impoverished medium. They are subsequently pretreated for one hour with the test molecule (10^-5 M and/or 10^-6 M) and then stimulated for 22 hours with a growth factor (for example PDGF). ^3 H-Thymidine is incorporated over the last 2 hours. All these steps are performed at 37° C. with 5% of CO2.
The reaction is terminated by sucking off the reaction medium, detaching the cells and then filtering the lyzed cells through glass fiber filters.
The results are expressed as the percentage inhibition of the stimulation of ^3 H-thymidine incorporation induced by the growth factor.

Structure (SMILES)	Phenylbenzoquinone test % inhibition at 30 mg/kg p.o. (mice)	% inhibition of the incorporation of ^3H-thymidine stimulated by PDGF, 1E-6M (Balbc 3T3 fibroblasts)	% inhibition of the incorporation of ^3H-thymidine stimulated by PDGF, 1E-5M (Balbc 3T3 fibroblasts; test molecule 1E-5M)
O=C(NC1CC1)[C@H]1O[C@@H](n2cnc3c(NCCc4cnc5c(OCc6ccccc6)cccn45)ncnc32)[C@H](O)[C@@H]1O [Example 33, β-D-Ribofuranuronamido-N-cyclopropyl-1-deoxy-1-[6-[[2-[8-(phenylmethoxy)imidazo[1,2-a]pyridin-3-yl]ethyl]amino]-9H-purin-9-yl]]	39%	–	–
Cc1ccc(C)c(COc2cccn3c(CCNc4ncnc5c4ncn5[C@@H]4O[C@H](C(=O)NC5CC5)[C@@H](O)[C@H]4O)cnc23)c1 [Example 34, β-D-Ribofuranuronamido-N-cyclopropyl-1-deoxy-1-[6-[[2-[[8-(2,5-dimethylphenyl)methoxy]imidazo[1,2-a]pyridin-3-yl]ethyl]amino]-9H-purin-9-yl]]	57%	72%	–
COCCOc1cccn2c(CCNc3ncnc4c3ncn4[C@@H]3O[C@H](C(=O)NC4CC4)[C@@H](O)[C@H]3O)cnc12 [Example 35, β-D-Ribofuranuronamido-N-cyclopropyl-1-deoxy-1-[6-[[2-[8-(2-methoxyethoxy)imidazo[1,2-a]pyridin-3-yl]ethyl]amino]-9H-purin-9-yl]]	25%	–	–
Cc1ccc(C)c(COc2cccn3c(CCNc4ncnc5c4ncn5[C@@H]4O[C@H](C(=O)NC5CC5)[C@@H](O)[C@H]4O)c(C)nc23)c1 [Example 36, β-D-Ribofuranuronamido-N-cyclopropy-1-deoxy-1-[6-[[2-[[8-(2,5-dimethylphenyl)methoxy]-2-methylimidazo[1,2-a]pyridin-3-yl]ethyl]amino]-9H-purin-9-yl]]	63%	80%	–
O=C(NC1CC1)[C@H]1O[C@@H](n2cnc3c(NCCc4cnc5c(OC6CCCC6)cccn45)ncnc32)[C@H](O)[C@@H]1O [Example 37, β-D-Ribofuranuronamido-N-cyclopropyl-1-deoxy-1-[6-[[2-[8-(cyclopentoxy)imidazo[1,2-a]pyridin-3-yl]ethyl]amino]-9H-purin-9-yl]]	57%	–	63%
